IC50 data for one molecule are collected here from PMC3187668 (Chemmedchem, 2011).

In this experiment the target is PI3Kα (Homo sapiens, UniProt P42336). Nature of the experiment: […]-ATP lipid kinase assay. It counts as biochemical.

Broadly, the IC50 is the concentration at which inhibition is half-maximal. Low values mean inhibition by little substance, high ones a need for much substance.

PI3Kα, sequence (P42336 whole entry): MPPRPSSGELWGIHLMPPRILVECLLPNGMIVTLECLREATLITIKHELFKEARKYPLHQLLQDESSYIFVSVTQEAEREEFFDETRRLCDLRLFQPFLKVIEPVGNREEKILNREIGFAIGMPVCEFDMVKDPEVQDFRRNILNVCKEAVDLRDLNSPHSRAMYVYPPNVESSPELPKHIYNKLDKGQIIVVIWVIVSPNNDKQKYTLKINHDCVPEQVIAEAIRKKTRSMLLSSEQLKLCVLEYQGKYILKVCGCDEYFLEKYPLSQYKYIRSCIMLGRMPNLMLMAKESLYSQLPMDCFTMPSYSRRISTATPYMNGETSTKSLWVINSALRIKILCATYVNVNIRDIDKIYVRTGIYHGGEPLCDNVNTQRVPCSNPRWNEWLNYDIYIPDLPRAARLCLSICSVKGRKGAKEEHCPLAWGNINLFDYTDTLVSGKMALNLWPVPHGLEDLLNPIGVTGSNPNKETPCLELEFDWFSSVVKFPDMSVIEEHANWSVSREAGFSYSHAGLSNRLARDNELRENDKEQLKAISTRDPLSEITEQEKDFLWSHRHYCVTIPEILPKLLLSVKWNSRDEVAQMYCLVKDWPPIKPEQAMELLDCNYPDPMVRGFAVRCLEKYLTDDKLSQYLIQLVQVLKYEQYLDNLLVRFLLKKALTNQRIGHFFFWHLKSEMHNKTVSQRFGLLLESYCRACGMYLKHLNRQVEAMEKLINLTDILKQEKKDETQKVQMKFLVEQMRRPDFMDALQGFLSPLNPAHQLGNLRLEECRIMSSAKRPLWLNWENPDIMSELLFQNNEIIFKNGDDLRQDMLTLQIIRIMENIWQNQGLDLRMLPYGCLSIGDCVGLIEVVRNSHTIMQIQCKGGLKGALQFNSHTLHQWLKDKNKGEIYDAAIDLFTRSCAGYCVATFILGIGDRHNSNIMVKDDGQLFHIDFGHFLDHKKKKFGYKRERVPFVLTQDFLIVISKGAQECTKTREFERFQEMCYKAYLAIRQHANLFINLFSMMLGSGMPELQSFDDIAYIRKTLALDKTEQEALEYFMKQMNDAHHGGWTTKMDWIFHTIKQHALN
PI3Kα, sequence (P27986 2-724 partner): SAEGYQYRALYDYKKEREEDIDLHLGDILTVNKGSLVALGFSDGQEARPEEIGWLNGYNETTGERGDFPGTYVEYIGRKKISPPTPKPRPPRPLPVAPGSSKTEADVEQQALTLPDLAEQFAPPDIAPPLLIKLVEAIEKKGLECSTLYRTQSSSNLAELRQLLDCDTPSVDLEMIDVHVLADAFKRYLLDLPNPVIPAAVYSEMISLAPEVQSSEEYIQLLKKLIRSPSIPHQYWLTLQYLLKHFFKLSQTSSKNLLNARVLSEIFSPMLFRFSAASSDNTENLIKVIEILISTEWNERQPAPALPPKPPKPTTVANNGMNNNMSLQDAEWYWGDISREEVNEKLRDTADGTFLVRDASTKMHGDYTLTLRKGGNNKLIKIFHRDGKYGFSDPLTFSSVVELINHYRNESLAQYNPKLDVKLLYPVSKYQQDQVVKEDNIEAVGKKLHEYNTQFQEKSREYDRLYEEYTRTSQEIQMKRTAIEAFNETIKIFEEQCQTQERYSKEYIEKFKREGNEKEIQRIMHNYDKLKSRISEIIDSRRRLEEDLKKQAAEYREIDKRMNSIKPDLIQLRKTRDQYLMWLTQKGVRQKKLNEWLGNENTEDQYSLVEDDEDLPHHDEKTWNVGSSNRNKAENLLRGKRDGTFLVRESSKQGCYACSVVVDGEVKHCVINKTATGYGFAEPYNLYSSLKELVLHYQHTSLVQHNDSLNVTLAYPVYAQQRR

Regarding `O=C1NC(=S)SC1=Cc1ccc2nccnc2c1` [compound 19, 19], 3 nM corresponded to half-maximal inhibition (IC50).
